From patent US6489098B1, “Means and methods for monitoring nucleoside reverse transcriptase inhibitor antiretroviral therapy and guiding therapeutic decisions in the treatment of HIV/AIDS” (ViroLogic, Inc., priority 1998, dated 2002)
“And” between values parts separate entries of the source, which are not always exact repeats. Equal entries are not always repeated. “Also recorded” adds a separate entry of the source.

Legend:
[1] = system: HIV-1 RT mutant resistance test vector M41L+A62V+T69SSA+M184V+T215Y; assay: Phenotypic susceptibility assay, site directed RTV M41L+A62V+T69SSA+M184V+T215Y; assay type: cell-based; details: for Average fold reduction in susceptibility: RTV with 41 + 62 + 69 + 184 + 215, 2 replicates; for effect on susceptibility (words): RTV with M41L+A62V+T69SSA+M184V+T215Y, addition of M184V to the 4 mutations
Experimental: (§1) Resistance tests were carried out with resistance test vectors using two host cell types. Resistance test vector viral particles were produced by a first host cell (the resistance test vector host cell) that was prepared by transfecting a packaging host cell with the resistance test vector and the packaging expression vector. The resistance test vector viral particles were then used to infect a second host cell (the target host cell) in which the expression of the indicator gene is measured.
(§2) The resistance test vectors containing a functional luciferase gene cassette were constructed and host cells were transfected with the resistance test vector DNA. The resistant test vectors contained patient-derived reverse transcriptase and protease sequences that were either susceptible or resistant to the antiretroviral agents, such as nucleoside reverse transcriptase inhibitors, non-nucleoside reverse transcriptase inhibitors and protease inhibitors. The resistance test vector viral particles produced by transfecting the resistance test vector DNA into host cells, either in the presence or absence of protease inhibitors, were used to infect target host cells grown either in the absence of NRTI or NNRTI or In the presence of increasing concentrations of the drug. The amount of luciferase activIty produced in infected target host cells in the presence of drug was compared to the amount of luciferase produced in infected target host cells in the absence of drug. Drug resistance was measured as the amount of drug required to inhibit by 50% the luciferase activity detected in the absence of drug (Inhibitory concentration 50%, IC50). The IC50 values were determined by plotting percent drug inhibition vs. log 10 drug concentration.
(§3) Host cells were seeded in 10-cm-diameter dishes and were transfected several days after plating with resistance test vector plasmid DNA and the envelope expression vector. Transfections were performed using a calcium-phosphate precipitation procedure. The cell culture media containing the DNA precipitate was replaced with fresh medium, from one to 24 hours, after transfection. Cell culture media containing resistance test vector viral particles was harvested one to four days after transfection and was passed through a […] filter before being stored at −80° C. HIV capsid protein (p24) levels in the harvested cell culture media were determined by an EIA method as described by the manufacturer (SIAC; Frederick, Md.). Before infection, target cells (293 and 293/T) were plated in cell culture media. Control infections were performed using cell culture media from mock transfections (no DNA) or transfections containing the resistance test vector plasmid DNA without the envelope expression plasmid. One to three or more days after infectIon the media was removed and cell lysis buffer (Promega) was added to each well. Cell lysates were assayed for luciferase activity (FIG. 3). The inhibitory effect of the drug was determined using the following equation:
(§4) % luciferase inhibition=1−(RLUluc[drug]÷RLUluc)×100
(§5) where RLUluc [drug] is the relative light unit of luciferase activity in infected cells in the presence of drug and RLUluc is the Relative Light Unit of luciferase activity in infected cells in the absence of drug. IC50 values were obtained from the sigmoidal curves that were generated from the data by plotting the percent inhibition of luciferase activity vs. the log 10 drug concentration. The drug inhibition curves are shown in (FIG. 3).
(§6) Genotypic changes that are observed to correlate with changes in phenotypic patterns of drug susceptibility are evaluated by construction of resistance test vectors containing the specific mutation on a defined, wild-type (drug susceptible) genetic background. Mutations may be incorporated alone and/or in combination with other known drug resistance mutations that are thought to modulate the susceptibility of HIV to a certain drug or class of drugs. […]

[2] = system: HIV-1 RT mutant resistance test vector A62V; assay: Phenotypic susceptibility assay, site directed RTV A62V; assay type: cell-based; details: RTV with A62V vs wild type RTV; for Average fold reduction in susceptibility: 3 replicates
Experimental: as §1, §2, §3, §4, §5, §6

[3] = system: HIV-1 RT mutant resistance test vector 41 + 69 + 184 + 215; assay: Phenotypic susceptibility assay, site directed RTV 41 + 69 + 184 + 215; assay type: cell-based; details: RTV with 41 + 69 + 184 + 215; 2 replicates
Experimental: as §1, §2, §3, §4, §5, §6

[4] = system: HIV-1 RT mutant resistance test vector A62V-T69SSA-L74V-RTV; assay: Phenotypic susceptibility assay, site directed RTV A62V-T69SSA-L74V; assay type: cell-based; details: for Average fold reduction in susceptibility: RTV with 62 + 69 + 74V, 1 replicate
Experimental: as §1, §2
as §3, with “Cell lysates were assayed for luciferase activity (FIG. 3).” left out
as §4
where RLUluc [drug] is the relative light unit of luciferase activity in infected cells in the presence of drug and RLUluc is the Relative Light Unit of luciferase activity in infected cells in the absence of drug. IC50 values were obtained from the sigmoidal curves that were generated from the data by plotting the percent inhibition of luciferase activity vs. the log 10 drug concentration. […]

[5] = system: HIV-1 RT mutant resistance test vector Q151M-RTV; assay: Phenotypic susceptibility assay, site directed RTV Q151M; assay type: cell-based; details: for effect on susceptibility (words): RTV with Q151M vs wild type RTV
Experimental: as §1, §2, §3
% luciferase inhibition=1−(RLUluc[drug]÷RLUluc)×100 […]
Genotypic changes that are observed to correlate with changes in phenotypic patterns of drug susceptibility are evaluated by construction of resistance test vectors containing the specific mutation on a defined, wild-type (drug susceptible) genetic background. […]

[6] = system: HIV-1 RT mutant resistance test vector A62V+T69SSA; assay: Phenotypic susceptibility assay, site directed RTV A62V+T69SSA; assay type: cell-based; details: for Average fold reduction in susceptibility: RTV with 62 + 69 (A62V+T69SSA), 4 replicates; for effect on susceptibility (words): RTV with A62V+T69SSA, compared with T69SSA alone
Experimental: as §1, §2, §3, §4, §5, §6

[7] = system: HIV-1 RT mutant resistance test vector 41 + 184 + 215; assay: Phenotypic susceptibility assay, site directed RTV 41 + 184 + 215; assay type: cell-based; details: RTV with 41 + 184 + 215; 3 replicates
Experimental: as §1, §2, §3, §4, §5, §6

[8] = system: HIV-1 RT mutant resistance test vector 41 + 62 + 69 + 75M + 210 + 215; assay: Phenotypic susceptibility assay, site directed RTV 41 + 62 + 69 + 75M + 210 + 215; assay type: cell-based; details: RTV with 41 + 62 + 69 + 75M + 210 + 215; 1 replicate
Experimental: as §1, §2, §3, §4, §5, §6

[9] = system: HIV with RT Val75→Thr mutation; details: cited from earlier work
[10] = system: HIV with RT Met184→Val mutation; details: Met184→Val (M184V); cited from earlier work

Structure (SMILES) | Average fold reduction in susceptibility [1] | effect on susceptibility (words) [1] | effect on susceptibility (words) [2] | Average fold reduction in susceptibility [2] | Average fold reduction in susceptibility [3] | Average fold reduction in susceptibility [4] | fold reduction in susceptibility ([5]; RTV with Q151M vs control RTV) | effect on susceptibility (words) [5] | Average fold reduction in susceptibility [6] | effect on susceptibility (words) [6] | Average fold reduction in susceptibility [7] | Average fold reduction in susceptibility [8] | fold increase in IC50 [9] | effect on susceptibility (words) ([4]; L74V introduced with A62V+T69SSA) | fold increase in IC50 / reduction in susceptibility [10] | susceptibility [9]
Cc1cn([C@H]2C=C[C@@H](CO)O2)c(=O)[nH]c1=O [d4T, stavudine] | 3.98 fold | no effect on the susceptibility to d4T; also recorded: did reduce d4T susceptibility more than the T69SSA mutation alone; also recorded: more susceptible | no differences in their susceptibility to d4T; also recorded: did not reduce d4T susceptibility; also recorded: had no affect on d4T susceptibility | 0.84 fold | 2.32 fold | 1.5 fold and 1.50 fold | approximately three-fold | less susceptible to d4T than the wild type control RTV; also recorded: reduced d4T and AZT susceptibility | 1.66 fold | no effect on the susceptibility to d4T; also recorded: did not reduce d4T susceptibility more than the T69SSA mutation alone | 1.18 fold | 13.18 fold | seven-fold | – | – | –
Cc1cn([C@H]2C[C@H](N=[N+]=[N-])[C@@H](CO)O2)c(=O)[nH]c1=O [AZT, zidovudine] | 43.86 fold | increase in the susceptibility to AZT; also recorded: suppressed the reduced AZT susceptibility; also recorded: more susceptible | slight increases in susceptibility to AZT; also recorded: had no effect on AZT susceptibility; also recorded: had no affect on AZT susceptibility | 1.25 fold | 5.87 fold | – | – | Significant changes in susceptibility; also recorded: reduced d4T and AZT susceptibility | 6 fold and 7 fold and approximately six-fold and 6.87 fold | further reduce AZT susceptibility | 2.77 fold | >1000 fold | – | shift of the susceptibility back to wild-type | – | –
Nc1ccn([C@H]2CC[C@@H](CO)O2)c(=O)n1 [ddC, zalcitabine] | 2.90 fold | no effect on susceptibility to ddC or abacavir | – | 0.74 fold | 3.48 fold | 1.8 fold and 1.80 fold | – | Significant changes in susceptibility | 1.74 fold | – | 1.73 fold | 2.09 fold | – | – | four-fold to eight-fold | reduced susceptibility to both ddI and ddC
Nc1nc(NC2CC2)c2ncn([C@H]3C=C[C@@H](CO)C3)c2n1 [ABC, abacavir] | 11.73 fold | no effect on susceptibility to ddC or abacavir | – | 0.59 fold | 11.56 fold | – | – | – | 2.71 fold | – | 3.02 fold | 15.53 fold | – | – | 2-5 fold | –
O=c1[nH]cnc2c1ncn2[C@H]1CC[C@@H](CO)O1 [ddI, didanosine] | 2.55 fold | more susceptible | – | 0.84 fold | 2.28 fold | – | – | Significant changes in susceptibility | 1.54 fold | – | 1.35 fold | 3.10 fold | – | – | four-fold to eight-fold | reduced susceptibility to both ddI and ddC
